Measurements as given in article PMC10051310, “Antiproliferative Activity, Multikinase Inhibition, Apoptosis- Inducing Effects and Molecular Docking of Novel Isatin–Purine Hybrids” (Medicina, 2023).

How the values were obtained:
[1] = tested on: HeLa; experiment: MTT cytotoxicity assay, HeLa; conditions: Homo sapiens, 24 h, read-out: In Vitro Cytotoxicity IC50 HeLa
Procedure: (§4) Sunitinib, a well-known multi-kinase inhibitor, was used as a reference compound.
(§5) After incubation for 48 h, the cells were treated with different concentrations of the synthesized hybrid compounds for 24 h. After the addition of 20 μL MTT (5 mg/mL), the plates were incubated for 4 h and then 100 μL Dimethyl sulfoxide (DMSO) was added to each well to dissolve the insoluble purple formazan formed. […] The relative cell viability percentage was calculated as (A570 of treated samples/A570 of untreated sample) × 100.

[2] = tested on: HepG2; experiment: MTT cytotoxicity assay, HepG2; conditions: Homo sapiens, HepG2, 24 h, read-out: In Vitro Cytotoxicity IC50 HepG2
Procedure: as §4, §5

[3] = tested on: MCF-7; experiment: MTT cytotoxicity assay, MCF-7; conditions: Homo sapiens, MCF7, 24 h, read-out: In Vitro Cytotoxicity IC50 MCF-7
Procedure: as §4, §5

[4] = tested on: MDA-MB-231; experiment: MTT cytotoxicity assay, MDA-MB-231; conditions: Homo sapiens, MDA-MB-231, 24 h, read-out: In Vitro Cytotoxicity IC50 MDA-MB-231
Procedure: as §4, §5

[5] = tested on: HepG2, MCF-7, MDA-MB-231 and HeLa cell lines; experiment: MTT cytotoxicity assay, summary over all four cell lines; conditions: Homo sapiens, read-out: IC50 against all tested cell lines
Procedure: as §4, §5

[6] = target: T1, CDK2 (Homo sapiens, UniProt P24941); experiment: In vitro CDK2 enzyme assay (ELISA kit); format: biochemical
T1 construct: purchased
Procedure: (§1) A human ELISA kit (Enzyme-Linked Immunosorbent Assay) for each of the above-mentioned protein kinase enzymes was used in this assay. […] The mixture was then incubated at room temperature for 2.5 h, after which the wells were washed and 100 μL of the prepared biotin antibody was added and incubated for 1 h at room temperature. After another washing step, 100 μL of streptavidin solution was added and incubated for 45 min at room temperature. The wells were then washed for a third time and 100 μL of TMB Substrate reagent was added and incubated for 30 min at room temperature. Finally, 50 μL of the stop solution was added, and the absorbance was read immediately at 450 nm. A standard curve was plotted showing concentration on the X-axis and absorbance on the Y-axis.

[7] = target: T2, EGFR (Homo sapiens, UniProt P00533); experiment: In vitro EGFR enzyme assay (ELISA kit); format: biochemical
T2 construct: purchased
Procedure: as §1

[8] = target: T3, Her2 (Homo sapiens, UniProt P04626); experiment: In vitro Her2 enzyme assay (ELISA kit); format: biochemical
T3 construct: purchased
Procedure: as §1

[9] = target: T4, VEGFR2 (Homo sapiens, UniProt P35968); experiment: In vitro VEGFR-2 enzyme assay (ELISA kit); format: biochemical
T4 construct: purchased
Procedure: as §1

[10] = tested on: HepG2 cells; experiment: Flow cytometry cell cycle analysis (propidium iodide); format: cell-based, human; conditions: HepG2, 9.61 μM, 24 h
Procedure: In addition, the cell cycle progression assay as described by Wang et al. was used to investigate the effect of compound 15 in HepG2 cells. The biological effect of compound 15 was measured by treating HepG2 cells with 9.61 μM of the compound for 24 h. The compound’s effect on cell cycle distribution was analyzed by comparing with untreated control cells (Table 3, Figure 6).
Flow cytometry analysis was carried out using an ab139418 Propidium Iodide flow cytometry kit/BD to detect the effect of the synthesized compound 15 on cell cycle distribution. First, HepG2 cell were seeded in 6-well plates at a density of 2 × 10^5/well and incubated for 24 h. HepG2 cells were then treated with 9.61 µM of compound 15 for 24 h. The treated cells were then fixed in 70% ethanol for 12 h at 4 °C, rinsed with cold PBS, incubated with 100 μL RNase A for 0.5 h at 37 °C, and stained with Propidium Iodide (400 μL) in the dark at RT for an extra 0.5 h. The stained cells were determined utilizing Epics XLMCL™ flow cytometer equipment (Beckman Coulter, Apeldoorn, Netherlands), and the results were collected and analyzed using Flowing software (version 2.5.1, Turku Centre for Biotechnology, Turku, Finland).

[11] = tested on: HepG2 cells; experiment: Annexin V/propidium iodide apoptosis flow cytometry; format: cell-based, human; conditions: HepG2, 9.61 μM, 24 h
Procedure: On the other hand, an Annexin V/propidium iodide (PI) double staining assay was conducted to identify the mode of cell death promoted by compound 15 (9.61 μM) following 24 h incubation with HepG2 cells.
Flow cytometry cell apoptosis analysis was conducted to examine the apoptotic effect of the synthesized compounds using the Annexin V-FITC cell apoptosis detection kit (Biovision, K101-100). First, HepG2 cells in a density of 2 × 10^5 were seeded in 6-well plates and incubated for 24 h. The cells were then treated with 9.61 µM compound 15 for 24 h. The treated cells were then detached with trypsin (5 min, 37 °C), collected by centrifugation (5 min, 300× g), washed twice with PBS, and resuspended in 0.1 mL of a 1X binding buffer. After that, the cells were double-stained with 5 μL Annexin V-FITC and 5 μL PI in the dark at room temperature for 15 min. The stained cells were evaluated using an Epics XL-MCL™ Flow Cytometer (Beckman Coulter, Apeldoorn, Netherlands) with an excitation wavelength of 488 nm and an emission wavelength of 530 nm, and the data were interpreted using the Flowing software (version 2.5.1, Turku Centre for Biotechnology, Turku, Finland).

[12] = tested on: BAX; experiment: BAX protein level ELISA in HepG2 cells; format: cell-based, human; conditions: HepG2, 9.61 μM, 24 h
Procedure: (§2) In these assays, compound 15 was used at its cytotoxic concentration (9.61 μM) and incubated with HepG2 cells for 24 h.
(§3) HepG2 cells were seeded in 96-well plates in triplicate and incubated for 24 h. The incubated cells were then treated with compound 15 at different concentrations. Cells treated with 0.1% DMSO (V/V) served as control. After 24 h incubation, caspase 3 and 9, BAX and Bcl-2 levels were determined using ELISA assay kits KHO1091 (Invitrogen^TM, Grand Island, NY, USA), EIA-4860 (DRU International INC., Mountainside, NJ, USA), EIA-4487 (DRU International INC., Mountainside, NJ, USA) and 99-0042 (Invitrogen^TM, Grand Island, NY, USA), respectively, according to the manufacturers’ procedures.

[13] = tested on: Bcl-2; experiment: Bcl-2 protein level ELISA in HepG2 cells; format: cell-based, human; conditions: HepG2, 9.61 μM, 24 h
Procedure: as §2, §3

[14] = tested on: Caspase 3; experiment: Caspase 3 protein level ELISA in HepG2 cells; format: cell-based, human; conditions: HepG2, 9.61 μM, 24 h
Procedure: as §2, §3

[15] = tested on: Caspase 9; experiment: Caspase 9 protein level ELISA in HepG2 cells; format: cell-based, human; conditions: HepG2, 9.61 μM, 24 h
Procedure: as §2, §3

T3 sequence (P04626 23-1255): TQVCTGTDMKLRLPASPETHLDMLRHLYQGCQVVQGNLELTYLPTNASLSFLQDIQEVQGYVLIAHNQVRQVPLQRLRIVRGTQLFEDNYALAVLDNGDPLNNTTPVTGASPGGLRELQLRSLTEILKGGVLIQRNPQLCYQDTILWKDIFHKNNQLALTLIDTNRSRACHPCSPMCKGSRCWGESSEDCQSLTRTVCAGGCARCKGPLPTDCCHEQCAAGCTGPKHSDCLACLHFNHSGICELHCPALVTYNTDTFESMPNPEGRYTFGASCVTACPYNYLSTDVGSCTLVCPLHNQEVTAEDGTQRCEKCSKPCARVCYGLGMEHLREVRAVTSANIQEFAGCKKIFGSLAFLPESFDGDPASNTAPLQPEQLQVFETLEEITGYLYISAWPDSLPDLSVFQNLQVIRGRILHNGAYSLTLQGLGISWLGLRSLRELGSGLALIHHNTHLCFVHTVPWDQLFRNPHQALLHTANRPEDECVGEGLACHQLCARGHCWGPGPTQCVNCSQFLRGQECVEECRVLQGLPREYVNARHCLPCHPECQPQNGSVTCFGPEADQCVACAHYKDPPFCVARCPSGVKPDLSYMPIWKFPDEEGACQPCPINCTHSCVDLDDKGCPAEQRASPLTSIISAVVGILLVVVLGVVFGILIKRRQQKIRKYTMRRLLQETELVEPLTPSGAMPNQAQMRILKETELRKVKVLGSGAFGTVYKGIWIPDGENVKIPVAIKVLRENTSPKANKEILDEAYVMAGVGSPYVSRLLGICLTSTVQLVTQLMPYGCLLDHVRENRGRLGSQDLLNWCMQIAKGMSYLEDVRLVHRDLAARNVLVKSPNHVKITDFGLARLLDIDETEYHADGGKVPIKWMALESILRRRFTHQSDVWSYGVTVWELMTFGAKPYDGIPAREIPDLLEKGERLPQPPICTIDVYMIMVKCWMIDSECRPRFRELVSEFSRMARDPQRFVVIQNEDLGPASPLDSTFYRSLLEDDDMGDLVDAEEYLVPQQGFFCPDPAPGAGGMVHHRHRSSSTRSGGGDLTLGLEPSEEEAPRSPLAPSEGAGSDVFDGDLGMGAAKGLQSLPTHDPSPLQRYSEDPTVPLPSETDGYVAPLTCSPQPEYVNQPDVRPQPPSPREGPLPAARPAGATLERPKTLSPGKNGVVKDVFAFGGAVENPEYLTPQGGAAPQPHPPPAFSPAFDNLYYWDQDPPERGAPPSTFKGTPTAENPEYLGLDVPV
T2 sequence (P00533 25-1210): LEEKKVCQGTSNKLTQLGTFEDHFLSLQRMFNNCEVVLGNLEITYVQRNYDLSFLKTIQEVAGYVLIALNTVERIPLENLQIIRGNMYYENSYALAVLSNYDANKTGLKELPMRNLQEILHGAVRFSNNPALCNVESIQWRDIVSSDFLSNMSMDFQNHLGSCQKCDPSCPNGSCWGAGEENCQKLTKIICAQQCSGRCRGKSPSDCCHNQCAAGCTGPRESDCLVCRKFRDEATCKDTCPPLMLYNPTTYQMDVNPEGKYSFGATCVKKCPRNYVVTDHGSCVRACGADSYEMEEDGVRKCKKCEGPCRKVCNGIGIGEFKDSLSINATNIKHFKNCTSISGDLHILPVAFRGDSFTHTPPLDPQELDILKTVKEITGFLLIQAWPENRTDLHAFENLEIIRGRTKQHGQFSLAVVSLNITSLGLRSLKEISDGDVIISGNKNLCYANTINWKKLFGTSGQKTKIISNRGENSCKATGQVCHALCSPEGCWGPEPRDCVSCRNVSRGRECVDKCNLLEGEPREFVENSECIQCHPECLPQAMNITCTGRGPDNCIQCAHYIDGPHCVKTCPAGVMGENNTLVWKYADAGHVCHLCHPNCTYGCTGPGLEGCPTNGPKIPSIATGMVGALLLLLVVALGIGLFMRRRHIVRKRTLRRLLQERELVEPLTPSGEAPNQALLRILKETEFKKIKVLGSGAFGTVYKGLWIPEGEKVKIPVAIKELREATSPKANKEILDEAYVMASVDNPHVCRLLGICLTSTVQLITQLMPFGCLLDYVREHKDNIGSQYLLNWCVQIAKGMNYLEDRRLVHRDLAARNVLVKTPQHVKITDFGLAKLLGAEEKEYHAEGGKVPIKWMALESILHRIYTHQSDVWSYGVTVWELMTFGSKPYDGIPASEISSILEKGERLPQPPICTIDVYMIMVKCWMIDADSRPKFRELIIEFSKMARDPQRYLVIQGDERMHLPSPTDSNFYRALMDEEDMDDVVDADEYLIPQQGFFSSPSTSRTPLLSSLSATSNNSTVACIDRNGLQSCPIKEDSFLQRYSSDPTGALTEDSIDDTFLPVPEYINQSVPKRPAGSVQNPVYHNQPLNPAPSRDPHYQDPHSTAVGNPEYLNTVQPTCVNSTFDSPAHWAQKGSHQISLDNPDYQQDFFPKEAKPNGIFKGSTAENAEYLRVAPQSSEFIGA
T4 sequence (P35968 20-1356): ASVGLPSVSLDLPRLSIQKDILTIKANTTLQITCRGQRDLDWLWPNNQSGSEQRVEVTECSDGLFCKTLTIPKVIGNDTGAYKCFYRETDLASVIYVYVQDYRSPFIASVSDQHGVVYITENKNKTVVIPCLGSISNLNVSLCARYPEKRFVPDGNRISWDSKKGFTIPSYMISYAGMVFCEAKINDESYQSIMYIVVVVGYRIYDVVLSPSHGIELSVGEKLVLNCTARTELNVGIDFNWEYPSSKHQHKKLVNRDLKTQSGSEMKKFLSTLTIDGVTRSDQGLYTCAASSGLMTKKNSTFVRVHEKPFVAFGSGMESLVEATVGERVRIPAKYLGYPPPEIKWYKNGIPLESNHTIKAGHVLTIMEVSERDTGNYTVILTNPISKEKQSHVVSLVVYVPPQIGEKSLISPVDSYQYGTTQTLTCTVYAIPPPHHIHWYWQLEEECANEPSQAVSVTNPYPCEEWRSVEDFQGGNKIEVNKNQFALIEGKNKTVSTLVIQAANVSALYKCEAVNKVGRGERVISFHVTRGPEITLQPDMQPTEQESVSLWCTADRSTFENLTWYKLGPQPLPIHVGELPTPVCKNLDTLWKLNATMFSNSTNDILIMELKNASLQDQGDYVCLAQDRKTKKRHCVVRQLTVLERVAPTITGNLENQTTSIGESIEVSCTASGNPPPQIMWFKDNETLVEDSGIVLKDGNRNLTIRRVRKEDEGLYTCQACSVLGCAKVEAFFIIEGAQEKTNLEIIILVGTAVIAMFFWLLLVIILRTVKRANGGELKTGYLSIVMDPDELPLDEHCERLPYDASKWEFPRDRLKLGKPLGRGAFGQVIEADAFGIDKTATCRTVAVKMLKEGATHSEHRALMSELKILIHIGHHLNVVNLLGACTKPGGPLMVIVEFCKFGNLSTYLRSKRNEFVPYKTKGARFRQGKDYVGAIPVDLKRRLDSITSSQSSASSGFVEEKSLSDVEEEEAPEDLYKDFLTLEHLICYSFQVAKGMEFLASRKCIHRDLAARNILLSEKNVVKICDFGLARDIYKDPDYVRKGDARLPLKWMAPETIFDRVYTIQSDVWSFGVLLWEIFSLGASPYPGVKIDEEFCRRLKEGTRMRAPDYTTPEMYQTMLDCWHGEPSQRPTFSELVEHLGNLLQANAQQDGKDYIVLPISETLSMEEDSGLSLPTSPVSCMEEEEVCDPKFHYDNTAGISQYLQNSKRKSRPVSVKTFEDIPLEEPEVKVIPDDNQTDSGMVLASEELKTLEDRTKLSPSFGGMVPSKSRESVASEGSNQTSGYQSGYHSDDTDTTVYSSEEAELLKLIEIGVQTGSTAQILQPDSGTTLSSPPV

## O=C1Nc2ccccc2C1=NNC(=O)c1ccc(Nc2ncnc3[nH]cnc23)cc1 [Compound 4, 4-((9H-purin-6-yl)amino)-N’-(2-oxoindolin-3-ylidene)benzohydrazide]
other
  melting point: > 300 °C
[1]
  IC50: 62.4 ± 3.4 µM
[2]
  IC50: 54.6 ± 3.1 µM
[3]
  IC50: 47.3 ± 3 µM
[4]
  IC50: 59.7 ± 2.9 µM

## COc1ccc2c(c1)C(=NNC(=O)c1ccc(Nc3ncnc4[nH]cnc34)cc1)C(=O)N2 [Compound 8, 4-((9H-purin-6-yl)amino)-N’-(5-methoxy-2-oxoindolin-3-ylidene)benzohydrazide]
other
  melting point: > 300 °C
[1]
  IC50: 53.5 ± 3.2 µM
[2]
  IC50: 48.1 ± 2.9 µM
[3]
  IC50: 40.6 ± 2.7 µM
[4]
  IC50: 29.8 ± 2 µM
[5]
  IC50: 18.1 to 53.5 µM

## Cc1ccc2c(c1)/C(=N\Nc1ncnc3[nH]cnc13)C(=O)N2 [Compound 14, (E)-3-(2-(9H-purin-6-yl)hydrazineylidene)-5-methylindolin-2-one]
other
  melting point: 294 to 296 °C
[1]
  IC50: 43.5 ± 2.7 µM
[2]
  IC50: 18.1 ± 1.3 µM
[3]
  IC50: 27.5 ± 2.1 µM
[4]
  IC50: 32.5 ± 2.2 µM
[5]
  IC50: 18.1 to 53.5 µM

## COc1ccc2c(c1)/C(=N\Nc1ncnc3[nH]cnc13)C(=O)N2 [Compound 15, (E)-3-(2-(9H-purin-6-yl)hydrazineylidene)-5-methoxyindolin-2-one]
[6]
  IC50: 0.534 µM
[7]
  IC50: 0.143 µM
[8]
  IC50: 0.15 µM
[9]
  IC50: 0.192 µM
[10]
  accumulation at pre-G1 compared to control cells: 10 fold
[10]; control 2.02
  Cell Cycle Distribution (%) % Pre-G1: 21.47%
[10]; control 17.45
  Cell Cycle Distribution (%) % G2/M: 6.38%
[10]; control 38.16
  Cell Cycle Distribution (%) % S: 42.44%
[10]; control 44.39
  Cell Cycle Distribution (%) % G0–G1: 51.18%
[11]; control 0.19%
  Apoptosis: Late: 12.58%
[11]; control 0.38%
  Apoptosis: Early: 1.86%
[11]; control 1.45%
  Apoptosis: Necrosis: 7.03%
[11]; Homo sapiens, control 97.98%, read-out: Apoptosis: Viable
  viability at 9.61 µM: 78.5%
[12]; control 83.88 ± 23
  BAX Expression: 279.1 ± 8.15 pg/mL
[12]; relative to control = 1
  BAX Fold: 3.38 fold
[13]; control 10.67 ± 0.83
  Bcl-2 Expression: 4.593 ± 0.22 pg/mL
[13]; fold decrease versus control
  Bcl-2 protein level decrease: 2.30 fold
[13]; relative to control = 1
  Bcl-2 Fold: 0.43 fold
[14]; control 93.23 ± 15.5
  Caspase 3 Expression: 368.4 ± 20.7 pg/mL
[14]; relative to control = 1
  Caspase 3 Fold: 3.95 fold
[15]; control 4.52 ± 1.27
  Caspase 9 Expression: 14.07 ± 0.58 pg/mL
[15]; relative to control = 1
  Caspase 9 Fold: 3.11 fold
[1]
  IC50: 8.93 ± 0.8 µM
[2]
  IC50: 9.61 ± 0.8 µM
[3]
  IC50: 10.8 ± 0.9 µM
[4]
  IC50: 14.9 ± 1.2 µM
[5]
  IC50: 8.93 to 14.9 µM

## CCN(CC)CCNC(=O)c1c(C)[nH]c(/C=C2\C(=O)Nc3ccc(F)cc32)c1C [Sunitinib, reference compound]
[1]
  IC50: 7.48 ± 0.6 µM
[2]
  IC50: 6.82 ± 0.5 µM
[3]
  IC50: 5.19 ± 0.4 µM
[4]
  IC50: 8.41 ± 0.7 µM

## O=C1Nc2ccc(F)cc2/C1=N\Nc1ncnc2[nH]cnc12 [Compound 13, (E)-3-(2-(9H-purin-6-yl)hydrazineylidene)-5-fluoroindolin-2-one]
other
  melting point: > 300 °C
[1]
  IC50: 51.2 ± 3 µM
[2]
  IC50: 31.7 ± 2.1 µM
[3]
  IC50: 38.8 ± 2.5 µM
[4]
  IC50: 45.2 ± 2.7 µM
[5]
  IC50: 18.1 to 53.5 µM

## O=C1Nc2ccc(Cl)cc2C1=NNC(=O)c1ccc(Nc2ncnc3[nH]cnc23)cc1 [Compound 5, 4-((9H-purin-6-yl)amino)-N’-(5-chloro-2-oxoindolin-3-ylidene)benzohydrazide]
other
  melting point: > 300 °C
[1]
  IC50: > 100 µM
[2]
  IC50: 88.1 ± 4 µM
[3]
  IC50: > 100 µM
[4]
  IC50: 82.1 ± 3.8 µM

## O=C1Nc2ccccc2/C1=N\Nc1ncnc2[nH]cnc12 [Compound 11, (E)-3-(2-(9H-purin-6-yl)hydrazineylidene)indolin-2-one]
other
  melting point: > 300 °C
[1]
  IC50: 17.6 ± 1.4 µM
[2]
  IC50: 12.9 ± 1 µM
[3]
  IC50: 15.6 ± 1.3 µM
[4]
  IC50: 24.8 ± 1.9 µM

## O=C1Nc2ccc([N+](=O)[O-])cc2C1=NNC(=O)c1ccc(Nc2ncnc3[nH]cnc23)cc1 [Compound 9, 4-((9H-purin-6-yl)amino)-N’-(5-nitro-2-oxoindolin-3-ylidene)benzohydrazide]
other
  melting point: > 300 °C
[1]
  IC50: 84.6 ± 4.1 µM
[2]
  IC50: 75.6 ± 3.5 µM
[3]
  IC50: 65 ± 3.4 µM
[4]
  IC50: 72.2 ± 3.4 µM

## O=C1Nc2ccc([N+](=O)[O-])cc2/C1=N\Nc1ncnc2[nH]cnc12 [Compound 16, (E)-3-(2-(9H-purin-6-yl)hydrazineylidene)-5-nitroindolin-2-one]
other
  melting point: > 300 °C
[1]
  IC50: 69.5 ± 3.6 µM
[2]
  IC50: 39.7 ± 2.5 µM
[3]
  IC50: 58.3 ± 3.2 µM
[4]
  IC50: 67.4 ± 3.2 µM

## O=C1Nc2ccc(Cl)cc2/C1=N\Nc1ncnc2[nH]cnc12 [Compound 12, (E)-3-(2-(9H-purin-6-yl)hydrazineylidene)-5-chloroindolin-2-one]
other
  melting point: 296 to 298 °C
[1]
  IC50: 46.7 ± 2.8 µM
[2]
  IC50: 26.4 ± 1.8 µM
[3]
  IC50: 33 ± 2.3 µM
[4]
  IC50: 41.3 ± 2.5 µM
[5]
  IC50: 18.1 to 53.5 µM

## O=C1Nc2ccc(F)cc2C1=NNC(=O)c1ccc(Nc2ncnc3[nH]cnc23)cc1 [Compound 6, 4-((9H-purin-6-yl)amino)-N’-(5-fluoro-2-oxoindolin-3-ylidene)benzohydrazide]
other
  melting point: > 300 °C
[1]
  IC50: 30.7 ± 2.3 µM
[2]
  IC50: 42.4 ± 2.7 µM
[3]
  IC50: 22.3 ± 1.8 µM
[4]
  IC50: 19.1 ± 1.4 µM
[5]
  IC50: 18.1 to 53.5 µM

## Cc1ccc2c(c1)C(=NNC(=O)c1ccc(Nc3ncnc4[nH]cnc34)cc1)C(=O)N2 [Compound 7, 4-((9H-purin-6-yl)amino)-N’-(5-methyl-2-oxoindolin-3-ylidene)benzohydrazide]
other
  melting point: > 300 °C
[1]
  IC50: > 100 µM
[2]
  IC50: 60.4 ± 3.2 µM
[3]
  IC50: 76.4 ± 3.7 µM
[4]
  IC50: 91.6 ± 4.5 µM
